Where two headings read alike, the source gives them in different places.
What was measured:
Type in all cases: cell-based
[1] = molecular target: T1, alpha2B receptor (Homo sapiens, UniProt P18089); assay: RSAT assay, alpha 2B; conditions: for (rel. efficacy) Alpha 2B: ratio of maximal effect to standard full agonist brimonidine (UK14304)
T1 construct: expressed in transfected cells; host or cells: NIH-3T3
T1 sequence (P18089 1-450): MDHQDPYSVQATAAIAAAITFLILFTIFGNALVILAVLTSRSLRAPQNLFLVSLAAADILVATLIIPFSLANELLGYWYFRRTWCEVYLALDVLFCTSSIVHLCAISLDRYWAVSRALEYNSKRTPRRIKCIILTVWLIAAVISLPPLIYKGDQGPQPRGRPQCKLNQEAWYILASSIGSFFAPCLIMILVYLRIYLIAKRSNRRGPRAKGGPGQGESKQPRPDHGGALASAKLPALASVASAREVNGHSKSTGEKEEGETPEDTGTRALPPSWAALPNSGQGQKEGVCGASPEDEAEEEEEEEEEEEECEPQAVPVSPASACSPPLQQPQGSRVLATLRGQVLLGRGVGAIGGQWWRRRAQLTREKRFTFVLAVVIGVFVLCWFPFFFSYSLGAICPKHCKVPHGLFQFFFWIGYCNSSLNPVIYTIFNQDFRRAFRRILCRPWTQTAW
Experimental: (§1) Selected presently described compounds were synthesized and tested for alpha adrenergic activity using the Receptor Selection and Amplification Technology (RSAT) assay. Cells expressing each of the alpha-2-adrenergic receptors alone were incubated with various compounds and a receptor-mediated growth response was measured. The compound's activity is expressed as its relative efficacy compared to a standard full agonist.
(§2) The RSAT assay measures a receptor-mediated loss of contact inhibition that results in selective proliferation of receptor-containing cells in a mixed population of confluent cells. The increase in cell number is assessed with an appropriate transfected marker gene such as β-galactosidase, the activity of which can be easily measured in a 96-well format. Receptors that activate the G protein, Gq, elicit this response. Alpha2 receptors, which normally couple to Gi, activate the RSAT response when coexpressed with a hybrid Gq protein that has a Gi receptor recognition domain, called Gq/i5.
(§3) NIH-3T3 cells are plated at a density of 2×10^6 cells in 15 cm dishes and maintained in Dulbecco's modified Eagle's medium supplemented with 10% calf serum. One day later, cells are cotransfected by calcium phosphate precipitation with mammalian expression plasmids encoding p-SV-β-galactosidase (5-10 μg), receptor (1-2 μg) and G protein (1-2 μg). 40 μg salmon sperm DNA may also be included in the transfection mixture. Fresh media is added on the following day and 1-2 days later, cells are harvested and frozen in 50 assay aliquots. Cells are thawed and […] added to […] aliquots of various concentrations of drugs in triplicate in 96-well dishes. Incubations continue 72-96 hr at 37° C. After washing with phosphatebuffered saline, β-galactosidase enzyme activity is determined by adding 200 μl of the chromogenic substrate (consisting of 3.5 mM o-nitrophenyl-β-D-galactopyranoside and 0.5% nonidet P-40 in phosphate buffered saline), incubating overnight at 30° C. and measuring optical density at 420 nm. The absorbance is a measure of enzyme activity, which depends on cell number and reflects a receptor-mediated cell proliferation. The EC50 and maximal effect of each drug at each alpha2 receptor is determined. The efficacy or intrinsic activity is calculated as a ratio of the maximal effect of the drug to the maximal effect of a standard full agonist for each receptor subtype. Brimonidine, also called UK14304, is used as the standard agonist for the alpha2A, alpha2B, and alpha2C receptors.
(§4) The compounds activity is expressed as its relative efficacy compared to a standard full agonist.

[2] = molecular target: T2, alpha2C receptor (Homo sapiens, UniProt P18825); assay: RSAT assay, alpha 2C; conditions: for (rel. efficacy) Alpha 2C: ratio of maximal effect to standard full agonist brimonidine (UK14304)
T2 construct: expressed in transfected cells; host or cells: NIH-3T3
T2 sequence (P18825 1-462): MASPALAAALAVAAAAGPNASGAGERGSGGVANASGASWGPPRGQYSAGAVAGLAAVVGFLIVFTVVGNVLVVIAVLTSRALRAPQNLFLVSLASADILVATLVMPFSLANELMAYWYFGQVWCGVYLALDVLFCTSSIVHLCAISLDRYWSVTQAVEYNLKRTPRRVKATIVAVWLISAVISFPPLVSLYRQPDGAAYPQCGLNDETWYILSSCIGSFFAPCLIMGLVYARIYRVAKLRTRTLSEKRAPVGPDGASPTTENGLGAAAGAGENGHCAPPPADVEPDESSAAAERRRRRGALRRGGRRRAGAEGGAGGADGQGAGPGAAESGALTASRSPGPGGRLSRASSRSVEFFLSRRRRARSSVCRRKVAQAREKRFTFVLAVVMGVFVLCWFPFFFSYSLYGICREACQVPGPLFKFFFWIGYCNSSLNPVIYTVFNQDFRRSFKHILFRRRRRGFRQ
Experimental: as §1, §2, §3, §4

[3] = molecular target: T3, alpha2A receptor (Homo sapiens, UniProt P08913); assay: RSAT assay, alpha 2A; conditions: for (rel. efficacy) Alpha 2A: ratio of maximal effect to standard full agonist brimonidine (UK14304)
T3 sequence (P08913 1-465): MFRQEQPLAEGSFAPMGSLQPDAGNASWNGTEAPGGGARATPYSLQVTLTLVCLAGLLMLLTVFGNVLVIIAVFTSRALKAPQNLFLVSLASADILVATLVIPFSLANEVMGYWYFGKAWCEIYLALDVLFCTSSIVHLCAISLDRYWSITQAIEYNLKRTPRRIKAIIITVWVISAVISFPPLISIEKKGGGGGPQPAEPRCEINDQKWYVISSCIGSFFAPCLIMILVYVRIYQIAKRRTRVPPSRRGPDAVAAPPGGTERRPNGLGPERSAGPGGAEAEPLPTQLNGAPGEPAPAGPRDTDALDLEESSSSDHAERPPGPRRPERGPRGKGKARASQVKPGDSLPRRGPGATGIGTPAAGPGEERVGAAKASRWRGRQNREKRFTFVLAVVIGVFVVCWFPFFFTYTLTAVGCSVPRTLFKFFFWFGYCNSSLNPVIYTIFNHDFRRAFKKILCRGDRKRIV
Experimental: as §1, §2, §3, §4

[4] = RSAT, NIH-3T3 cells, NA = not active, read-out: EC50 (nM) Alpha 2C
[5] = RSAT, NIH-3T3 cells, NA = not active, read-out: EC50 (nM) Alpha 2B

| Structure (SMILES) | EC50 [1] | (rel. efficacy) Alpha 2B ([1]; RSAT) | EC50 [2] | (rel. efficacy) Alpha 2C ([2]; RSAT) | EC50 [3] | (rel. efficacy) Alpha 2A ([3]; RSAT) | EC50 [2, 4] | EC50 ([3]; RSAT, NIH-3T3 cells, NA = not active, read-out: EC50 (nM) Alpha 2A) | EC50 [1, 5] |
| --- | --- | --- | --- | --- | --- | --- | --- | --- | --- |
| Fc1c(Cl)cccc1CNC1=NCCS1 | 107 nM | 1.01 | 535 nM | 0.7 | – | – | – | – | – |
| Fc1c(CNC2=NCCS2)cccc1C(F)(F)F | 184 nM | 0.99 | 1430 nM | 0.73 | – | – | – | – | – |
| Brc1ccccc1CNC1=NCCS1 | 29 nM | 0.84 | 190 nM | 0.77 | 2780 nM | 0.37 | – | – | – |
| Clc1cccc(CNC2=NCCS2)c1 | 42 nM | 0.99 | – | 0.48 | – | – | 504 nM | – | – |
| Brc1cccc(CNC2=NCCS2)c1 | 75 nM | 0.84 | 459 nM | 0.5 | – | – | – | – | – |
| Fc1c(Br)cccc1CNC1=NCCS1 | 34 nM | 0.98 | 182 nM | 0.64 | 1380 nM | 0.44 | – | – | – |
| COc1ccc(Cl)cc1CNC1=NCCS1 | 77 nM | 0.85 | – | 0.55 | – | 0.38 | 465 nM | 2250 nM | – |
| Fc1ccc(Br)c(CNC2=NCCS2)c1 | 73 nM | 0.97 | 452 nM | 0.67 | – | – | – | – | – |
| Fc1ccc(Br)cc1CNC1=NCCS1 | – | 0.85 | – | 0.64 | – | – | 2060 nM | – | 280 nM |
| Clc1cccc(CNC2=NCCS2)c1Cl | 28 nM | 0.94 | 252 nM | 0.68 | – | – | – | – | – |
| FC(F)(F)c1cccc(CNC2=NCCS2)c1Cl | – | 1.08 | – | 0.46 | – | – | 854 nM | – | 101 nM |
| Cc1cc(Br)c(F)c(CNC2=NCCS2)c1 | – | 1.04 | – | 0.62 | – | – | 803 nM | – | 168 nM |
| Cc1cc(Cl)cc(CNC2=NCCS2)c1F | 351 nM | 0.96 | 1250 nM | 0.51 | – | – | – | – | – |
| Clc1ccccc1CNC1=NCCS1 | 50 nM | 0.85 | – | 0.66 | – | – | 699 nM | – | – |
| Clc1ccc(Br)cc1CNC1=NCCS1 | – | 0.9 | – | 0.56 | – | – | 1330 nM | – | 296 nM |
| Brc1ccccc1CNC1=NCCO1 | 5 nM | 1.09 | 85 nM | 0.85 | – | – | – | – | – |
| Clc1cccc(CNC2=NCCO2)c1Cl | 5 nM | 1.05 | 92 nM | 0.91 | – | – | – | – | – |
| Clc1ccccc1CNC1=NCCO1 | 3.3 nM | 1.02 | 42 nM | 0.83 | – | – | – | – | – |
| Clc1ccc(Br)cc1CNC1=NCCO1 | 20 nM | 0.98 | 81 nM | 0.71 | – | – | – | – | – |

| Structure (SMILES) | EC50 [1] | (rel. efficacy) Alpha 2B ([1]; RSAT) | EC50 [2] | (rel. efficacy) Alpha 2C ([2]; RSAT) | EC50 [3] | (rel. efficacy) Alpha 2A ([3]; RSAT) | EC50 [2, 4] | EC50 ([3]; RSAT, NIH-3T3 cells, NA = not active, read-out: EC50 (nM) Alpha 2A) | EC50 [1, 5] |
| --- | --- | --- | --- | --- | --- | --- | --- | --- | --- |
| Fc1ccc(Br)c(CNC2=NCCO2)c1 | 4 nM | 1.05 | 29 nM | 0.71 | – | – | – | – | – |
| Brc1cccc(CNC2=NCCO2)c1 | 12 nM | 1.0 | 83 nM | 0.59 | – | – | – | – | – |
| Fc1ccc(Br)cc1CNC1=NCCO1 | 18 nM | 0.89 | – | 0.63 | – | – | 186 nM | – | – |
| FC(F)(F)c1cccc(CNC2=NCCO2)c1Cl | 5 nM | 0.96 | – | 0.81 | – | – | 189 nM | – | – |
| Fc1ccc(Cl)c(F)c1CNC1=NCCO1 | 57 nM | 0.93 | – | 0.52 | – | – | 356 nM | – | – |
| COc1c(Cl)cccc1CNC1=NCCS1 | 22 nM | 1.08 | 99 nM | 0.73 | 701 nM | 0.38 | – | – | – |
| COc1c(C)cccc1CNC1=NCCS1 | 27 nM | 0.98 | 187 nM | 0.97 | 481 nM | 0.57 | – | – | – |
| Cc1c(Cl)cccc1CNC1=NCCS1 | 40 nM | 0.99 | 401 nM | 0.72 | – | – | – | – | – |
| Clc1c(Br)cccc1CNC1=NCCS1 | 18 nM | 1.01 | – | 0.98 | > 3000 nM | 0.4 | 198 nM | – | – |
| Clc1cccc(CNC2=NCCS2)c1Br | 40 nM | 0.85 | – | 0.68 | – | – | 303 nM | – | – |
| Cc1cccc(CNC2=NCCO2)c1C | 2 nM | 1.09 | 11 nM | 0.83 | – | – | – | – | – |
| FC(F)Oc1ccccc1CNC1=NCCO1 | 34 nM | 0.83 | 13 nM | 0.74 | – | – | – | – | – |
| FC(F)(F)c1ccccc1CNC1=NCCO1 | 31 nM | 0.97 | 21 nM | 0.8 | – | – | – | – | – |
| FC(F)Oc1cccc(CNC2=NCCO2)c1 | – | 0.6 | 60 nM | 0.49 | – | – | – | – | 217 nM |
| Fc1cccc(CNC2=NCCO2)c1 | 39 nM | 0.82 | 17 nM | 0.59 | – | – | – | – | – |
| COc1ccccc1CNC1=NCCS1 [drawing 16] | – | – | 1550 nM | 0.74 | – | – | – | – | – |
| COc1ccccc1CNC1=NCCO1 [drawing 17] | 13.4 nM | 1.09 | – | 0.53 | – | – | 181 nM | – | – |
| Fc1c(Cl)cccc1CNC1=NCCO1 [drawing 19] | 10 nM | 1.09 | 22 nM | 0.85 | – | – | – | – | – |

Source: US8329918B2, “Selective alpha 2B/2C agonists” (priority 2009, dated 2012)
